Assay results taken from patent US7572770B2, “Use of an interleukin 1 receptor antagonist and/or pyrrolidinedithiocarbamate for the treatment or prophylaxis of type 2 diabetes” (University of Zurich, priority 2002, dated 2009).

Legend:
NF-κB = NF-κB activation in human islets; format: cell-based; details: 33.3 mM glucose with IL-1Ra 500 ng/ml, 44 hours
Protocol: Western blot analysis. Islets were cultured in a culture medium in non-adherent plastic dishes. One day after isolation, the medium was changed and groups of 200 islets were incubated for 44 hours in culture medium containing 5.5 or 33.3 mM glucose without or with 2 ng/ml IL-1β or 500 ng/ml IL-1Ra. At the end of the incubations, islets were washed in PBS, suspended in 50 μl sample buffer containing 125 mM Tris-HCl, pH 6.8, 4% SDS, 10% glycerol, 0.3% bromphenol blue, 1.8% β-mercaptoethanol and boiled for 5 min. Equivalent amounts of each treatment group were run on 15% SDS polyacrylamide gels. […] Intensity of bands was analyzed using Multianalyst™ (Bio Rad, Laboratories inc., Hercules, Calif.). […] Activation of NF-κB complex was quantified with an ELISA-based Kit, using attached oligonucleotides binding to a NF-κB consensus site and detected by an anti-p65 or p50 subunit antibody, according to the manufacturer's instructions (Trans-AM™ NFκB, Active Motif). […] Sections were incubated with mouse anti-NF-κB (p65) (1:50 dilution) or rabbit anti-IκB (1:50 dilution, C-21, Santa Cruz) antibodies, detected by donkey anti-mouse or anti-rabbit Cy3 conjugated antibodies and double stained for insulin as described above.

type I IL-1R = biological target: T1, type I IL-1R (Homo sapiens, UniProt P14778); details: read-out: Kd, binding to type I IL-1R; cited from earlier work
T1 sequence (P14778 18-569): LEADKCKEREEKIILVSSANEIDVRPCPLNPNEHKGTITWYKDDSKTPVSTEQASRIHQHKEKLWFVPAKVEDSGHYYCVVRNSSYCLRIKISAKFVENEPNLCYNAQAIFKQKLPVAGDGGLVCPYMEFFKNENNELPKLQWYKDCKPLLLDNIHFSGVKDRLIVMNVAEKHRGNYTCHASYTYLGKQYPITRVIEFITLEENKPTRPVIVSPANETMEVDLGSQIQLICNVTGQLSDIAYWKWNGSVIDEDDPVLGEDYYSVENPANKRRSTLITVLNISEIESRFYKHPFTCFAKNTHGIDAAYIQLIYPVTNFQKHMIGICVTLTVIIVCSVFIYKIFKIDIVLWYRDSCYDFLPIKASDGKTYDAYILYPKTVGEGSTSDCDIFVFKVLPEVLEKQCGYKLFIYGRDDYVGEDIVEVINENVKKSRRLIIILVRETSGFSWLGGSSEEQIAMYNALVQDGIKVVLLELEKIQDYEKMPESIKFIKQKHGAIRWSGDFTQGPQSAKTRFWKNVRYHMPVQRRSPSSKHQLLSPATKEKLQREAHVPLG

## Interleukin 1 receptor antagonist [IL-1Ra]
NF-κB
  glucose-induced increase in NF-κB activity: prevented
Type I IL-1R
  Kd: 0.2 nM
